In patent publication EP0026746A1, “Combinatory compositions for use in a method for enhancing the activity of antibiotics, antibiotic preparations having enhanced activity and process for their production” (CIBA-GEIGY AG, priority 1979, dated 1981):

Experiments:
Experiment in all cases: Mouse protection test, i.p. infection, survival ED50
Format in all cases: in vivo
[1] = tested on: Salmonella typhimurium 277; conditions: Salmonella enterica, sc, 240 h, mice, 40 x 10^4 cfu i.p., s.c. immediately and 3 h after infection, results after 10 days
Text: (§1) Die hohe antibiotische Wirkung des neuen Verfahrens und der neuen Präparate kann durch "in vivo"-Versuche nachgewiesen werden, die an verschiedenen Tierarten, insbesondere an Säugetieren, wie Mäusen, durchgeführt werden. Dazu infiziert man sie mit einer letalen oder sub-letalen Dosis eines pathogenen Microorganismus und gibt dann das genannte neue Präparat bzw. die einzelnen Dosen an Muramylpeptid und Antibiotikum. Die Wirkung wird als ED bestimmt, das ist diejenige Dosis bei denen […] der Tiere überleben.
(§2) Beispiel 4: Man infiziert weisse Laboratoriums-Mäuse auf i.p. Wege mit den in der nachfolgenden Tabelle angeführten pathogenen Mikroorganismen in Salzlösung, so dass 90-100% der nicht behandelten Kontrolltiere innerhalb von 48 Stunden getötet werden. Unmittelbar, sowie 3 Stunden nach der Infektion werden Gruppen zu je 10 Mäusen mit Cefroxadin, sowohl allein (ohne MDP oder nMDP) als auch in Kombination mit N-Acetyl-muramyl-L-alanyl-D-isoglutamin (MDP) bzw. mit N-Acetyldesmethylmuramyl-L-alanyl-D-isoglutamin (nMDP) behandelt, wobei dieselben zweimal in Form wässriger Lösungen oder Suspensionen auf subkutanem Weg verabreicht wurden. Nach 4 bzw. 10 Tagen nach erfolgter Infektion wurden die überlebenden Tiere gezählt. Die meisten dieser Versuche wurden zweifach ausgeführt und die Mittelwerte ermittelt.

[2] = tested on: Salmonella typhimurium 273; conditions: Salmonella enterica, sc, 240 h, mice, 400 x 10^4 cfu i.p., s.c. immediately and 3 h after infection, results after 10 days
Text: as §1, §2

[3] = tested on: Streptococcus pyogenes 38; conditions: Streptococcus pyogenes, 38, sc, 96 h, mice, 0.6 x 10^4 cfu i.p., s.c. immediately and 3 h after infection, survivors after 4 days
Text: as §1
as §2, with “10 Tagen nach erfolgter Infektion wurden die überlebenden Tiere gezählt.” left out

[4] = tested on: Pasteurella multocida; conditions: sc, mice, 0.1 x 10^4 cfu i.p., s.c. immediately and 3 h after infection, survivors
Text: as §1
as §2, with “10 Tagen nach erfolgter Infektion wurden die überlebenden Tiere gezählt.” left out

[5] = tested on: Klebsiella pneumoniae 327; conditions: Klebsiella pneumoniae, 327, sc, mice, 60 x 10^4 cfu i.p., s.c. immediately and 3 h after infection, survivors
Text: as §1
as §2, with “10 Tagen nach erfolgter Infektion wurden die überlebenden Tiere gezählt.” left out

[6] = tested on: Klebsiella pneumoniae 329; conditions: Klebsiella pneumoniae, 329, sc, 96 h, mice, 2 x 10^4 cfu i.p., s.c. immediately and 3 h after infection, survivors after 4 days
Text: as §1
as §2, with “10 Tagen nach erfolgter Infektion wurden die überlebenden Tiere gezählt.” left out

[7] = tested on: Staphylococcus aureus 2999; conditions: Staphylococcus aureus, 2999, sc, 96 h, mice, 20 000 x 10^4 cfu i.p., s.c. immediately and 3 h after infection, survivors after 4 days
Text: as §1
as §2, with “10 Tagen nach erfolgter Infektion wurden die überlebenden Tiere gezählt.” left out

## COC1=C(C(=O)O)N2C(=O)[C@@H](NC(=O)[C@H](N)C3=CCC=CC3)[C@H]2SC1 [Cefroxadin, 7ß-[D-2-amino-2-(1,4-cyclohexadienyl)-acetamido]-3-methoxy-3-cephem-4-carbonsäure]
[1]; mit 10 mg/kg MDP
  ED50: 7.6 mg/kg
[1]; mit 10 mg/kg nMDP
  ED50: 11 mg/kg
[1]; ohne MDP oder nMDP
  ED50: 22.5 mg/kg
[2]; mit 10 mg/kg MDP
  ED50: 22.5 mg/kg
[2]; mit 10 mg/kg nMDP
  ED50: 14 mg/kg
[2]; ohne MDP oder nMDP
  ED50: 39 mg/kg
[3]; mit 10 mg/kg MDP
  ED50: 0.18 mg/kg
[3]; mit 10 mg/kg nMDP
  ED50: 0.17 mg/kg
[3]; ohne MDP oder nMDP
  ED50: 0.21 mg/kg
[4]; mit 10 mg/kg MDP
  ED50: 37 mg/kg
[4]; mit 10 mg/kg nMDP
  ED50: 70 mg/kg
[4]; ohne MDP oder nMDP
  ED50: 109 mg/kg
[5]; mit 10 mg/kg MDP
  ED50: < 50 mg/kg
[5]; mit 10 mg/kg nMDP
  ED50: < 50 mg/kg
[5]; ohne MDP oder nMDP
  ED50: 75 mg/kg
[6]; mit 10 mg/kg MDP
  ED50: 4.5 mg/kg
[6]; mit 10 mg/kg nMDP
  ED50: < 2.5 mg/kg
[6]; ohne MDP oder nMDP
  ED50: 14.2 mg/kg
[7]; mit 10 mg/kg MDP
  ED50: 45 mg/kg
[7]; mit 10 mg/kg nMDP
  ED50: 35 mg/kg
[7]; ohne MDP oder nMDP
  ED50: 58 mg/kg
